Patent US5328985A, “Recombinant streptavidin-protein chimeras useful for conjugation of molecules in the immune system” (priority 1991, dated 1994)

System: recombinant streptavidin-Protein A chimeric protein encoded in pTSAPA-2 (streptavidin residues 16-133 fused to Protein A regions E and D; 31.4 kDa subunit …)
Assay: Determination of biotin-binding ability by gel filtration with D-[carbonyl-14C]biotin
Conditions: purified chimeric protein, subunit 31.4 kDa; room temperature, TBS; Sephadex G-25 gel filtration
Description: Biotin-binding ability was determined by gel filtration according to Methods Enzymol., 18A:424 (1970) using a Sephadex G-25 desalting column (PD-10; 0.76×5.0 cm, Pharmacia-LKB) and D-[carbonyl-^14 C]biotin (52 mCi/mmol, Amersham). The binding of the chimeric protein to biotin was done at room temperature in TBS containing 0.02% NAN3, and the same solution was used as the eluent.

O=C(O)CCCC[C@@H]1SC[C@@H]2NC(=O)N[C@@H]21 [biotin, D-biotin]
biotin-binding ability: molecules of biotin bound per subunit: more than 0.96 molecules of biotin per subunit
